Like-named read-outs stand apart in the source and are kept apart here.
Experiments:
Test thrombin (bovine) = biological target: T1, Test thrombin (bovine) (Bos taurus, UniProt P00735); assay: Thrombin time in human citrated plasma (Biomatic B10 coagulometer); format: biochemical
T1 construct: purchased Behring Werke, Marburg
Protocol: were investigated as follows for their effects on thrombin time:
Materials: plasma, from human citrated blood.
Test thrombin (bovine), 30U/mL, Behring Werke, Marburg
Diethylbarbiturate acetate buffer, ORWH 60/61, Behring Werke, Marburg
Biomatic B10 coagulometer, Sarstedt
The thrombin time was determined using a Biomatic B10 coagulometer made by Messrs. Sarstedt. As the test substance, 0.1 mL of human citrated plasma and 0.1 mL diethylbarbiturate buffer (DBA buffer) were added to the test strip prescribed by the manufacturer. The mixture was incubated for one minute at 37° C. The clotting reaction was started by the addition of 0.3 U test thrombin in 0.1 mL DBA buffer. The time is measured using the apparatus from the addition of the thrombin up to the clotting of the mixture. Mixtures to which 0.1 mL of DBA buffer were added were used as the controls.

thrombocyte aggregation = assay: Inhibitory effect on thrombocyte aggregation; format: cell-based
rats = conditions: doses of up to 10 mg/kg i.v.
[1] = concentration at which the thrombin time is double compared with the control, human citrated plasma, 0.3 U test thrombin (bovine), 37° C.

SMILES	Thrombin time (ED200 in μM) (Test thrombin (bovine); [1]) [µM]	other results
CCOC(=O)CCN(c1ccccc1)S(=O)(=O)c1ccc2c(c1)nc(CNc1ccc(C(=N)N)cc1)n2C.Cl		melting point: 188 to 191 °C
N=C(N)c1ccc(NCc2nc3cc(C(=O)N(CCC(=O)O)c4ccccc4)ccc3s2)cc1 [A, 2-[N-(4-amidinophenyl)aminomethyl]benzthiazole-5-carboxylic acid-N-phenyl-N-(2-carboxyethyl)amide]	0.04	
Cn1c(CCc2ccc(C(=N)N)cc2)nc2cc(C(=O)N(CCCC(=O)O)c3ccccc3)ccc21 [B, 1-methyl-2-[2-(4-amidinophenyl)ethyl]benzimidazol-5-yl-carboxylic acid-N-phenyl-N-(3-hydroxycarbonylpropyl)amide]	0.06	
Cn1c(COc2ccc(C(=N)N)cc2)nc2cc(C(=O)N(CC(=O)O)c3ccccc3)ccc21 [C, 1-methyl-2-[(4-amidinophenyl)oxymethyl]benzimidazol-5-yl-carboxylic acid-N-phenyl-N-(hydroxycarbonylmethyl)amide]	0.15	
Cn1c(CNc2ccc(C(=N)N)cc2)nc2cc(C(=O)N(CCC(=O)O)c3ccccc3)ccc21 [D, 1-methyl-2-[N-(4-amidinophenyl)aminomethyl]benzimidazol-5-yl-carboxylic acid-N-phenyl-N-(2-hydroxycarbonylethyl)amide]		Thrombin time (ED200 in μM) (Test thrombin (bovine)): 0.03 µM
Cn1c(CNc2ccc(C(=N)N)cc2)nc2cc(C(=O)N(CC(=O)O)c3ccccn3)ccc21 [E, 1-methyl-2-[N-(4-amidinophenyl)aminomethyl]benzimidazol-5-yl-carboxylic acid-N-(2-pyridyl)-N-(hydroxycarbonylmethyl)amide]	0.09	
CN(Cc1nc2cc(C(=O)N(CCC(=O)O)c3ccccc3)ccc2s1)c1ccc(C(=N)N)cc1.Cl [Example 16, 2-[N-(4-amidinophenyl)-N-methylaminomethyl]benzothiazol-5-yl-carboxyiic acid-N-phenyl-N-(2-hydroxycarbonylethyl)amide hydrochloride]		inhibitory effect on thrombocyte aggregation (thrombocyte aggregation): slight inhibitory effect
Cn1c(CCc2ccc(C(=N)N)cc2)nc2cc(C(=O)N(CCc3nnn[nH]3)c3ccccc3)ccc21 [F, 1-methyl-2-[2-(4-amidinophenyl)ethyl]benzimidazol-5-yl-carboxylic acid-N-phenyl-N-[2-(1H-tetrazol-5-yl)ethyl]amide]	0.03	
[H]/N=C(/N)c1ccc(NCc2nc3cc(C(=O)N(CCC(=O)O)c4ccccn4)ccc3n2C)cc1 [G, 1-methyl-2-[N-(4-amidinophenyl)aminomethyl]benzimidazol-5-yl-carboxylic acid-N-(2-pyridyl)-N-(2-hydroxycarbonylethyl)amide]		Thrombin time (ED200 in μM) (Test thrombin (bovine)): 0.03 µM; acute toxic side effects (rats): no acute toxic side effects were observed
